Assay results: US20260327628A1, “AN RNA APTAMER THAT BINDS TO ASP7967 OR AN ANALOGUE THEREOF” (priority 2022, published 2026)
“Also recorded” adds a separate entry of the source. Like-named read-outs stand apart in the source and are kept apart here.

Test: Pharmacokinetics of ASP7967 in mice after oral administration (LC-MS/MS)
Format: in vivo, mice (BALB/c cAJc1)
Conditions: for Tmax: first sampling time point
Description: FIG. 10 Pharmacokinetics of ASP7967 in mice after oral administration. After oral administration at 100 mg kg^−1 to mice (BALB/c cAJc1), plasma and liver concentrations of ASP7967 were measured using liquid chromatography-tandem mass spectrometry (LC-MS/MS). ASP7967 concentrations in both plasma and liver reached maxima within the first sampling time point of 1 h and then decreased over time.

For Fc1ccc(Nc2nc(NCc3ncccn3)nc(Nc3ccc(F)cc3)n2)cc1 [ASP7967], which Tmax (mouse, liver, 100 mg kg^−1 oral, read-out: time of maximum liver concentration) is on record?
The Tmax was no more than 1 h.

What about the Kp (mouse, liver, 100 mg kg^−1 oral, read-out: concentration ratio of liver to plasma) of the same compound?
The Kp was 2.7 to 30.6.

And the Tmax (mouse, plasma, 100 mg kg^−1 oral, read-out: time of maximum plasma concentration)?
Its Tmax is no more than 1 h.

What about the “concentration in the liver / distribution (in words)” value (oral administration) of the same compound?
Its value is “high concentration; also recorded: distributed to the liver”.
